Data set [1] in a line: wn = mass fraction of the nth substance listed. Particulars: 100 kPa, Liquid, Vibrating tube method.
Data set [2] in a line: refractive index (Na D-line) (dimensionless); wn = mass fraction of the nth substance listed. The settings on record: 100 kPa, Liquid, Standard Abbe refractometry.

Numbers after ± are expanded uncertainties.

As a reminder, the mass density is mass per unit of volume. As usually defined, the refractive index is a measure of how strongly the sample bends light.

With `[Cl-].[Na+]` [sodium chloride] + O, the mass density was 1200.01 ± 10 kg/m3 in data set [1] (293.15 K, w1 = 0.265) and 1181.06 ± 10 kg/m3 in data set [1] (313.15 K, w1 = 0.2717). Also, the refractive index amounted to 1.38027 ± 0.002 in data set [2] (293.15 K, w1 = 0.265) and 1.37386 ± 0.002 in data set [2] (313.15 K, w1 = 0.2717).

(Values after the NIST ThermoML archive (doi:10.1016/j.jct.2018.06.026).)
